“And” between values parts separate entries of the source, which are not always exact repeats. Identical values can stand only once. The source made the active and inactive calls.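 The calls were made as follows: active = compounds whose fitted half-maximal concentration for changing the GFP signal is at or below a set limit; inactive = the rest.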

This test is described as follows: TOR pathway RPL19A-GFP modulators, concentration series – cell-based, S. cerevisiae, flow cytometry, MLPCN hits, dose response (AID 2740).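 Also: background is signal of the same compound in parental non-GFP s288c yeast.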 The following applies: S. cerevisiae RPL19A-GFP strain, flow cytometry fluorescence, 3 h; at 33 µM (top of the series). (In flow cytometry, cells or beads pass a laser one at a time.)
In the case of `Cc1ccc(C(=O)Oc2oc(-c3ccco3)nc2C=Nc2ccc(Cl)cc2)cc1`, the GFP fluorescence, lower = active (kMESF (background-subtracted)) was 40.8 (inactive).

Consider `O=C1CCN(S(=O)(=O)c2ccccc2)CCN1CCOCc1ccc(F)cc1`, for which the GFP fluorescence, lower = active (kMESF (background-subtracted)) was 36.9 (inactive).

Take `COc1ccc(N2C(=O)C(Cl)=C(Oc3cccc(OC)c3)C2=O)cc1`: the GFP fluorescence, lower = active (kMESF (background-subtracted)) is 45.6 (inactive).

With `O=C(COc1ccccc1)N1CCN(c2ncnc3c2cnn3-c2ccccc2)CC1`, the GFP fluorescence, lower = active (kMESF (background-subtracted)) was 37.1 (inactive).

Consider `O=[N+]([O-])c1cc(F)c2cccnc2c1O`, for which the GFP fluorescence, lower = active (kMESF (background-subtracted)) is 25.6 (inactive).

Regarding `Cc1ccc(N=c2ssnc2Cl)cc1`, the GFP fluorescence, lower = active (kMESF (background-subtracted)) is 23 (inactive).

For `CCOc1ccc(N2C(=O)C(Cl)=C(Nc3ccccc3O)C2=O)cc1`, the GFP fluorescence, lower = active (kMESF (background-subtracted)) was 45.1 (inactive).

For `CCOc1ccc(C(C)=O)cc1N1C(=O)C2C3C=CC(O3)C2C1=O` (centres undefined), the GFP fluorescence, lower = active (kMESF (background-subtracted)) was 42.4 (inactive).

In the case of `CN(Cc1cnc2nc(N)nc(N)c2n1)c1ccc(C(=O)N[C@@H](CCC(=O)O)C(=O)O)cc1`, the GFP fluorescence, lower = active (kMESF (background-subtracted)) is 39.3 (inactive) and 38.8 (inactive).

`CC(=O)N(\C=C/C=C/C=C1\Sc2ccccc2C1=O)c1ccccc1`: the GFP fluorescence, lower = active (kMESF (background-subtracted)) is 56.1 (inactive).

Consider `O=C(NC(=S)Nc1ccc2oc(=O)ccc2c1)c1cccc(Cl)c1`, for which the GFP fluorescence, lower = active (kMESF (background-subtracted)) is 37.2 (inactive).

For the compound `c1ccc(-c2csc(Nc3cccnc3)n2)nc1`, the GFP fluorescence, lower = active (kMESF (background-subtracted)) was 36.5 (inactive).

As to `O=C1ON=C(c2ccccc2)/C1=C\c1ccco1`, the GFP fluorescence, lower = active (kMESF (background-subtracted)) was 28.9 (inactive).

Take `COc1ccc(N=Cc2nc(-c3ccccc3)oc2OC(C)=O)cc1`: the GFP fluorescence, lower = active (kMESF (background-subtracted)) was 40.2 (inactive).

Take `O=c1cc(-c2ccccc2)cc(-c2ccccc2)n1O`: the GFP fluorescence, lower = active (kMESF (background-subtracted)) is 15.4 (inactive).

`O=C(/C=C/c1ccccc1[N+](=O)[O-])c1ccccc1Br`: the GFP fluorescence, lower = active (kMESF (background-subtracted)) is 44.1 (inactive).

Turning to `Oc1cc(-c2ccc(N3CCCCC3)nc2)cc2cccnc12`, the GFP fluorescence, lower = active (kMESF (background-subtracted)) was 46.1 (inactive).

Consider `CCCCOc1ccc(C(=O)NNC(=S)NC(=O)CC)cc1`, for which the GFP fluorescence, lower = active (kMESF (background-subtracted)) is 43 (inactive).

With `CC(C)[C@@]1(c2ccc(Cl)cc2)ON(c2ccccc2C(F)(F)F)C1=O`, the GFP fluorescence, lower = active (kMESF (background-subtracted)) is 39.1 (inactive).

Regarding `COc1cc(C=C2C(=O)c3ccccc3C2=O)cc(OC)c1`, the GFP fluorescence, lower = active (kMESF (background-subtracted)) was 41.6 (inactive).

As for `Cc1cc(O)c(C(=O)/C=C/c2c(F)c(F)c(F)c(F)c2F)c(=O)o1`, the GFP fluorescence, lower = active (kMESF (background-subtracted)) was 26.6 (inactive).

`N#C/C(=C\c1cc(Br)ccc1F)C(=O)NC1CC1`: the GFP fluorescence, lower = active (kMESF (background-subtracted)) was 24.2 (inactive).

On to `O=C(Nc1ccc(O)cc1)C1CCCN1S(=O)(=O)c1ccc(F)cc1` (centres undefined), for which the GFP fluorescence, lower = active (kMESF (background-subtracted)) was 45 (inactive).

On to `O=C(Nc1ccc(N2CCOCC2)cc1)C1CCN(S(=O)(=O)c2ccc3c(c2)OCCO3)CC1`, for which the GFP fluorescence, lower = active (kMESF (background-subtracted)) was 34.9 (inactive).

For the compound `CCOC(=O)CCS(=O)(=O)c1nc(-c2ccccc2)cc(C(F)(F)F)n1`, the GFP fluorescence, lower = active (kMESF (background-subtracted)) was 33.2 (inactive).

As to `CCc1nc2ccccc2c(=O)n1NC(=O)c1c(O)c2cccc3c2n(c1=O)CCC3`, the GFP fluorescence, lower = active (kMESF (background-subtracted)) is 25.5 (inactive).

Take `Cc1cccnc1Nc1nc(-c2ccccn2)cs1`: the GFP fluorescence, lower = active (kMESF (background-subtracted)) is 33.3 (inactive).

For the compound `Cc1cccc(N=Nc2ccc(O)c3ncccc23)c1`, the GFP fluorescence, lower = active (kMESF (background-subtracted)) is 33.3 (inactive).

Consider `O=C(Nc1ccc(NC(=O)c2cc3ccccc3o2)cc1)c1ccc2c(c1)OCCO2`, for which the GFP fluorescence, lower = active (kMESF (background-subtracted)) was 40.1 (inactive).

Consider `O=C(Oc1c(Cl)cc(Cl)c2cccnc12)c1ccco1`, for which the GFP fluorescence, lower = active (kMESF (background-subtracted)) was 34.9 (inactive).

With `CC1(c2ccccc2)ON(c2ccccc2C(F)(F)F)C1=O` (centres undefined), the GFP fluorescence, lower = active (kMESF (background-subtracted)) is 40 (inactive).

Consider `CCC(=O)Oc1oc(-c2ccccc2)nc1C=Nc1ccc(C)cc1`, for which the GFP fluorescence, lower = active (kMESF (background-subtracted)) was 40.5 (inactive).

As to `O=C1ON=C(c2ccccc2)/C1=C/c1ccco1`, the GFP fluorescence, lower = active (kMESF (background-subtracted)) is 28.4 (inactive).

For `CC(=O)Oc1ccc(N2C(=O)C3C4C=CC(CO)(O4)C3C2=O)cc1` (centres undefined), the GFP fluorescence, lower = active (kMESF (background-subtracted)) was 38.8 (inactive).

As to `Oc1c(CN2CCN(c3ccccc3)CC2)cc(Br)c2cccnc12`, the GFP fluorescence, lower = active (kMESF (background-subtracted)) was 38.4 (inactive).

Turning to `O=C(c1ccc(C(=O)N2CCCc3ccccc32)s1)N1CCCc2ccccc21`, the GFP fluorescence, lower = active (kMESF (background-subtracted)) is 38.1 (inactive).

In the case of `O=C(O)C1Sc2[nH]c(=O)sc2C2c3cc(Br)ccc3OC(=O)C12` (centres undefined), the GFP fluorescence, lower = active (kMESF (background-subtracted)) was 37.8 (inactive).

Regarding `COc1cc(CNC(=O)CCCCCCC(C)C)ccc1O`, the GFP fluorescence, lower = active (kMESF (background-subtracted)) is 48.5 (inactive).

With `CC(=O)N(C1=C(Cl)C(=O)c2ccccc2C1=O)C1CCCCC1`, the GFP fluorescence, lower = active (kMESF (background-subtracted)) is -1.82 (inactive).

On to `COc1ccc([C@]2(C(C)C)ON(c3ccccc3C(F)(F)F)C2=O)cc1`, for which the GFP fluorescence, lower = active (kMESF (background-subtracted)) is 46 (inactive).

Consider `CCOC(=O)CS(=O)(=O)c1nc(-c2ccc(F)cc2)cc(C(F)(F)F)n1`, for which the GFP fluorescence, lower = active (kMESF (background-subtracted)) was 46.7 (inactive).

In the case of `O=C(c1ccccn1)c1conc1C(=O)c1ccc(Br)cc1`, the GFP fluorescence, lower = active (kMESF (background-subtracted)) was 38.5 (inactive).

On to `O=C1c2ccccc2C(=O)N1OS(=O)(=O)c1ccccc1`, for which the GFP fluorescence, lower = active (kMESF (background-subtracted)) is 43.2 (inactive).

As to `Cc1ccc(NC(=O)CCc2ccccc2)cc1S(=O)(=O)N1CCOCC1`, the GFP fluorescence, lower = active (kMESF (background-subtracted)) was 45.9 (inactive).

Turning to `CN(C)NC(=S)Nc1ccc(S(=O)(=O)N2CCCCC2)cc1`, the GFP fluorescence, lower = active (kMESF (background-subtracted)) was 44.8 (inactive).

Regarding `Oc1ccc(COCc2ccccc2)c2cccnc12`, the GFP fluorescence, lower = active (kMESF (background-subtracted)) is 46.5 (inactive).

As for `COc1ccccc1C(=O)NNC(=S)NC(=O)c1cccs1`, the GFP fluorescence, lower = active (kMESF (background-subtracted)) was 43.5 (inactive).

Consider `COc1cc(/C=C2\C(=O)N(CCC#N)N=C2C)c(Br)cc1OC(C)C`, for which the GFP fluorescence, lower = active (kMESF (background-subtracted)) was 39.9 (inactive).

For `Cc1ccc2nc(/C(C#N)=C/c3ccc(O)c(O)c3)[nH]c2c1`, the GFP fluorescence, lower = active (kMESF (background-subtracted)) was 43.8 (inactive).

For `CCCCCCCCCCCCCCCC[n+]1cccc2ccccc21`, the GFP fluorescence, lower = active (kMESF (background-subtracted)) is 1.36 (inactive).

On to `CCC(C)/C(C)=N/NC(=O)c1ccc(COc2ccc(Cl)c(C)c2)cc1` (centres undefined), for which the GFP fluorescence, lower = active (kMESF (background-subtracted)) is 44.9 (inactive).

Turning to `O=C(c1ccc([N+](=O)[O-])o1)N1CCN(c2nc3c(F)cc(F)cc3s2)CC1`, the GFP fluorescence, lower = active (kMESF (background-subtracted)) was 31.7 (inactive).

On to `Cc1cc(=O)oc2cc(Oc3ccc([N+](=O)[O-])cc3C(F)(F)F)ccc12`, for which the GFP fluorescence, lower = active (kMESF (background-subtracted)) was 44.2 (inactive).

Turning to `Clc1cnc(N/N=C/c2cccs2)c(Cl)c1`, the GFP fluorescence, lower = active (kMESF (background-subtracted)) was 43.5 (inactive).

As for `Cc1ccc(C(c2cc(Cl)c3cccnc3c2O)N2CCN(C)CC2)cc1` (centres undefined), the GFP fluorescence, lower = active (kMESF (background-subtracted)) was 29.8 (inactive).

On to `CCN1/C(=C/C=C/c2sc3ccccc3[n+]2CC)Sc2ccccc21`, for which the GFP fluorescence, lower = active (kMESF (background-subtracted)) was 31.9 (inactive).

On to `Cc1ccccc1OCCOC(=O)c1ccc(S(=O)(=O)N2CCCC2)cc1`, for which the GFP fluorescence, lower = active (kMESF (background-subtracted)) was 43.3 (inactive).

With `CN(c1ccccc1)c1ccc(/C=c2\s/c(=C(/C#N)C(=O)C(C)(C)C)n(Cc3ccco3)c2=O)cc1`, the GFP fluorescence, lower = active (kMESF (background-subtracted)) is 56 (inactive).

Regarding `O=c1[nH]c(-c2ccccn2)nc(C(F)(F)F)c1Br`, the GFP fluorescence, lower = active (kMESF (background-subtracted)) was 30.1 (inactive).

As to `Cc1cccc(OCCN2CSC(=S)N(C)C2)c1`, the GFP fluorescence, lower = active (kMESF (background-subtracted)) is 40.5 (inactive).

Consider `CC1=C(C)/C(=N\OS(=O)(=O)c2ccccc2)C=CC1=O`, for which the GFP fluorescence, lower = active (kMESF (background-subtracted)) was 24.9 (inactive).

On to `O=C(CCc1ccccc1)NNC(=S)NC(=O)c1ccccc1`, for which the GFP fluorescence, lower = active (kMESF (background-subtracted)) is 44.5 (inactive).

Consider `CC(C)(C)c1cc(C(c2cccnc2)N2CCN(CCO)CC2)cc(C(C)(C)C)c1O` (centres undefined), for which the GFP fluorescence, lower = active (kMESF (background-subtracted)) was 4.63 (inactive).

For the compound `CC(Oc1cc2oc(=O)c3c(c2cc1Cl)CCC3)C(=O)NCCN1CCOCC1` (centres undefined), the GFP fluorescence, lower = active (kMESF (background-subtracted)) is 37.8 (inactive).

Take `COc1ccc(/C=C/C(=O)NC(=S)NNC(=O)c2cnccn2)cc1`: the GFP fluorescence, lower = active (kMESF (background-subtracted)) is 49.2 (inactive).

Turning to `CN(C)c1ccc(N=Cc2nc(-c3ccccc3)oc2OC(=O)c2ccccc2)cc1`, the GFP fluorescence, lower = active (kMESF (background-subtracted)) is 44.1 (inactive).

For the compound `Nc1nc2ncc(CNc3ccc(C(=O)N[C@@H](CCC(=O)O)C(=O)O)cc3)nc2c(=O)[nH]1`, the GFP fluorescence, lower = active (kMESF (background-subtracted)) was 37 (inactive).

With `CC(C)C[C@]1(c2ccccc2)ON(c2ccccc2C(F)(F)F)C1=O`, the GFP fluorescence, lower = active (kMESF (background-subtracted)) is 36.6 (inactive).

As for `Cc1ccc(C(=O)/C=C/C(=O)c2ccc(C)cc2)cc1`, the GFP fluorescence, lower = active (kMESF (background-subtracted)) was 47.5 (inactive).

On to `COc1cc(N=c2ssnc2Cl)c(OC)cc1Cl`, for which the GFP fluorescence, lower = active (kMESF (background-subtracted)) is 22.5 (inactive) and 23.2 (inactive).

With `CC(=O)c1ccc(N2CCN(C(=O)c3ccc(Br)cc3)CC2)c(F)c1`, the GFP fluorescence, lower = active (kMESF (background-subtracted)) was 46.1 (inactive).

In the case of `Cc1ccc(N2C(=O)CC(Sc3ncn[nH]3)C2=O)cc1C` (centres undefined), the GFP fluorescence, lower = active (kMESF (background-subtracted)) is 49.3 (inactive).

Take `Cc1[nH]c2ccccc2c1C(=O)COC(=O)c1ccc([N+](=O)[O-])s1`: the GFP fluorescence, lower = active (kMESF (background-subtracted)) is 13.6 (inactive).

For `O=C(/C=C/c1ccc(F)cc1)NC(=S)NNC(=O)c1cnccn1`, the GFP fluorescence, lower = active (kMESF (background-subtracted)) was 36.8 (inactive).
